Source: US7943577B2, “Alpha-fetoprotein peptides and uses thereof” (Albany Medical College, priority 2001, dated 2011)

Key:
[1] = test system: small cell lung cancer HTB 184 cells; assay: PCNA and nuclear ERα immunoblot, HTB 184; assay type: cell-based, human; parameters: key to Total Nuclear Estrogen Receptor / PCNA accumulation: “+” indicates increase; “−” indicates decrease; “NC” indicates no change
Method: (§1) Cell lines. Glioma cells: C6 cells were cultured in F-12K medium with 18% FBS. F98 cells and GL261 cells were cultured in DMEM with 10% FBS. Head and neck cancer: 22B cells were cultured in DMEM with 10% FBS. Papillary thyroid cancers: BHP2-7 cells and BHP18-21 cells were cultured in DMEM with 10% FBS. Small cell lung cancer: HTB184 cells were cultured in RPMI medium with 10% FBS. Breast cancers: MCF-7 cells were cultured in DMEM (w/o phenol red) with 5% FBS and MDA-MB cells were cultured in DMEM with 10% FBS. Colon cancer: Colo 205 cells were cultured in RPMI medium with 10% FBS. Ovarian cancer: OVCAR-3 cells were culture in RPMI medium with 20% FBS supplemented with insulin. Prostate cancers: LNCaP cells were cultured in RPMI medium with 10% FBS. DU145 cells were cultured in MEM with 10% FBS and PC3 cells were cultured in F-12 medium with 10% FBS. Cervical cancer: HeLa cells were cultured in MEM with 10% FBS. Melanoma cells were cultured in DMEM with 10% FBS. These conditions were determined to maintain cellular production of proliferating cell nuclear antigen (PCNA) at high levels immediately prior to study of AFP-related peptide. All cell cultures were maintained in a 5% CO2/95% O2 incubator at 37 C. Cell fractionation. Fractionation in a microfuge and preparation of nucleoproteins was by our previously reported methods (1-3). Nuclear extracts were prepared by resuspension of the crude nuclei in high salt buffer (hypotonic buffer with 420 mM NaCl and 20% glycerol) at 4° C. with rocking for 1 hr. The supernatants were collected after subsequent centrifugation at 4° C. and 13,000 rpm for 10 min. Immunoblotting. The techniques are standard and have been described in a number of our publications (1-3). In brief, nucleoproteins were separated on discontinuous SDS-PAGE and then transferred by electroblotting to nitocellulose membranes (Millipore, Bedford, Mass.). […] Immunoreactive proteins are detected by chemiluminescence.

[2] = test system: MDA-MB breast cancer cells; assay: PCNA and nuclear ERα immunoblot, MDA-MB; assay type: cell-based, human; parameters: key to Total Nuclear Estrogen Receptor / PCNA accumulation: “+” indicates increase; “−” indicates decrease; “NC” indicates no change
Method: as §1

[3] = test system: colon cancer (Colo 205) cells; assay: PCNA and nuclear ERα immunoblot, Colo 205; assay type: cell-based, human; parameters: key to Total Nuclear Estrogen Receptor / PCNA accumulation: “+” indicates increase; “−” indicates decrease; “NC” indicates no change
Method: as §1

[4] = test system: HeLa cervical cancer cells; assay: PCNA and nuclear ERα immunoblot, HeLa; assay type: cell-based; parameters: key to Total Nuclear Estrogen Receptor / PCNA accumulation: “+” indicates increase; “−” indicates decrease; “NC” indicates no change
Method: as §1

[5] = test system: PC3 prostate carcinoma cells; assay: PCNA and nuclear ERα immunoblot, PC3; assay type: cell-based, human; parameters: key to Total Nuclear Estrogen Receptor / PCNA accumulation: “+” indicates increase; “−” indicates decrease; “NC” indicates no change
Method: as §1

melanoma cells = assay: PCNA and nuclear ERα immunoblot, melanoma; assay type: cell-based, human; parameters: key to Total Nuclear Estrogen Receptor / PCNA accumulation: “+” indicates increase; “−” indicates decrease; “NC” indicates no change
Method: Cell lines. Glioma cells: C6 cells were cultured in F-12K medium with 18% FBS. F98 cells and GL261 cells were cultured in DMEM with 10% FBS. Head and neck cancer: 22B cells were cultured in DMEM with 10% FBS. Papillary thyroid cancers: BHP2-7 cells and BHP18-21 cells were cultured in DMEM with 10% FBS. Small cell lung cancer: HTB184 cells were cultured in RPMI medium with 10% FBS. Breast cancers: MCF-7 cells were cultured in DMEM (w/o phenol red) with 5% FBS and MDA-MB cells were cultured in DMEM with 10% FBS. Colon cancer: Colo 205 cells were cultured in RPMI medium with 10% FBS. Ovarian cancer: OVCAR-3 cells were culture in RPMI medium with 20% FBS supplemented with insulin. Prostate cancers: LNCaP cells were cultured in RPMI medium with 10% FBS. DU145 cells were cultured in MEM with 10% FBS and PC3 cells were cultured in F-12 medium with 10% FBS. Cervical cancer: HeLa cells were cultured in MEM with 10% FBS. Melanoma cells were cultured in DMEM with 10% FBS. These conditions were determined to maintain cellular production of proliferating cell nuclear antigen (PCNA) at high levels immediately prior to study of AFP-related peptide. All cell cultures were maintained in a 5% CO2/95% O2 incubator at 37 C. Cell fractionation. Fractionation in a microfuge and preparation of nucleoproteins was by our previously reported methods (1-3). Nuclear extracts were prepared by resuspension of the crude nuclei in high salt buffer (hypotonic buffer with 420 mM NaCl and 20% glycerol) at 4° C. with rocking for 1 hr. The supernatants were collected after subsequent centrifugation at 4° C. and 13,000 rpm for 10 min. Immunoblotting. The techniques are standard and have been described in a number of our publications (1-3). In brief, nucleoproteins were separated on discontinuous SDS-PAGE and then transferred by electroblotting to nitocellulose membranes (Millipore, Bedford, Mass.). After blocking with 5% milk in Tris-buffered saline containing 0.1% Tween, the membranes were incubated with either mouse anti-human PCNA (Santa Cruz Biotech., Santa Cruz, Calif.) or mouse anti-human ER antibody (Santa Cruz) overnight. Secondary antibody was rabbit anti-mouse IgG (1:1000)(Dako), depending upon the origin of the primary antibody. Immunoreactive proteins are detected by chemiluminescence.

[6] = test system: DU145 prostate carcinoma cells; assay: PCNA and nuclear ERα immunoblot, DU145; assay type: cell-based, human; parameters: key to Total Nuclear Estrogen Receptor / PCNA accumulation: “+” indicates increase; “−” indicates decrease; “NC” indicates no change
Method: as §1

[7] = test system: BHP 18-21 papillary thyroid cancer cells; assay: PCNA and nuclear ERα immunoblot, BHP 18-21; assay type: cell-based; parameters: key: “+” indicates increase; “−” indicates decrease; “NC” indicates no change
Method: as §1, with “(1-3).” for “(1-3). Nuclear extracts were prepared by resuspension of the crude nuclei in high salt buffer (hypotonic buffer with 420 mM NaCl and 20% glycerol) at 4° C. with rocking for 1 hr. The supernatants were collected after subsequent centrifugation at 4° C. and 13,000 rpm for 10 min. Immunoblotting. The techniques are standard and have been described in a number of our publications (1-3). In brief, nucleoproteins were separated on discontinuous SDS-PAGE and then transferred by electroblotting to nitocellulose membranes (Millipore, Bedford, Mass.).”

[8] = HTB 184 (Small Cell Lung Cancer)

C[C@]12CC[C@@H]3c4ccc(O)cc4CC[C@H]3[C@@H]1CC[C@@H]2O [E2, 17β-estradiol]
PCNA accumulation [1, 8]: + | Total Nuclear Estrogen Receptor [1, 8]: + | nuclear ERα ([1]; HTB 184, 10^−9M E2 or 10^−6 M AFP-peptide, 24 h): increased nuclear ERα accumulation | PCNA accumulation ([2]; MDA-MB (Breast Cancer)): NC | Total Nuclear Estrogen Receptor ([2]; MDA-MB (Breast Cancer)): NC | nuclear ER ([2]; MDA-MB, 10^−9 M E2 or 10^−6 M peptide, 24 h): no significant change in ER | PCNA accumulation ([3]; Colo205 (Colon Cancer)): NC | Total Nuclear Estrogen Receptor ([3]; Colo205 (Colon Cancer)): NC | nuclear ERα ([3]; Colo 205, 10^−9 M E2 or 10^−7 M AFP-peptide, 24 h): did not increase nuclear accumulation of ER | PCNA accumulation ([4]; HeLa (Cervical Cancer)): + | Total Nuclear Estrogen Receptor ([4]; HeLa (Cervical Cancer)): + | nuclear ERα ([4]; HeLa, 10^−9M E2 or 10^−7 M AFP-peptide, 24 h): Neither E2 or AFP-peptide decreased nuclear accumulation of ERα | PCNA accumulation ([5]; PC 3 (Prostate Cancer)): − | Total Nuclear Estrogen Receptor ([5]; PC 3 (Prostate Cancer)): NC | nuclear ERα ([5]; PC3, 10^−9 M E2 or 10^−6 M AFP-peptide, 24 h): did not increase nuclear accumulation of ERα | PCNA accumulation (melanoma cells; Melanoma (Skin Cancer)): − | Total Nuclear Estrogen Receptor (melanoma cells; Melanoma (Skin Cancer)): − | nuclear ERα (melanoma cells; melanoma, 10^−9 M E2 or 10^−6M AFP-peptide, 24 h): decrease nuclear ERα accumulation | PCNA accumulation (melanoma cells; melanoma, AFP-peptide 10^−9 to 10^−7 M (left panel), 10^−9 M E2 or 10^−6M AFP-peptide (right panel), 24 h): reduce PCNA | PCNA accumulation ([6]; DU 145 (Prostate Cancer)): − | Total Nuclear Estrogen Receptor ([6]; DU 145 (Prostate Cancer)): − | nuclear ERα ([6]; DU145, 10^−9 M E2 or 10^−6 M AFP-peptide, 24 h): did not increase nuclear accumulation of ERα | PCNA accumulation [7]: + | Total Nuclear Estrogen Receptor [7]: +
